Reference: ChEMBL document CHEMBL3885881, “DrugMatrix”

Species on record: Rattus norvegicus
Experiment: DrugMatrix - Regimen: Daily Repeat
Type: toxicity, organism-based, Sprague-Dawley
Set-up: regimen Daily Repeat, gender Male, age 6-8 weeks
Conditions: in vivo, po, route oral GAVAGE, vehicle 100 % WATER; for ABSOLUTE BASOPHIL / ABSOLUTE EOSINOPHIL / ABSOLUTE LYMPHOCYTE / ABSOLUTE MONOCYTE / ABSOLUTE SEGMENTED NEUTROPHIL / BASOPHIL / EOSINOPHIL / ERYTHROCYTE COUNT / HEMATOCRIT / HEMOGLOBIN / LEUKOCYTE COUNT / LYMPHOCYTE / MEAN CORPUSCULAR HEMOGLOBIN / MEAN CORPUSCULAR HEMOGLOBIN CONCENTRATION / MEAN CORPUSCULAR VOLUME / MONOCYTE / NEUTROPHIL / NUCLEATED RED BLOOD CELLS / PLATELET COUNT: tissue Blood; for ALANINE AMINOTRANSFERASE / ALBUMIN / ALKALINE PHOSPHATASE / ASPARTATE AMINOTRANSFERASE / BLOOD UREA NITROGEN / CARBON DIOXIDE / CHLORIDE / CHOLESTEROL / CREATINE PHOSPHOKINASE / CREATININE / GLUCOSE / LACTATE DEHYDROGENASE / LIPASE / PHOSPHORUS / POTASSIUM / SODIUM / TOTAL BILIRUBIN / TOTAL PROTEIN / URIC ACID: tissue Plasma
[1] = 20 mg/kg, 120 h, dose level Low, time 5 day
[2] = 70 mg/kg, 72 h, dose level High, time 3 day
[3] = 70 mg/kg, 120 h, dose level High, time 5 day

With CCCC(C)C1(CC)C(=O)NC(=O)NC1=O (centres undefined) [PENTOBARBITAL] the “ABSOLUTE BASOPHIL” value [1] was 0 CELLS/uL, the “ABSOLUTE EOSINOPHIL” value [1] was 0 CELLS/uL and the “ABSOLUTE LYMPHOCYTE” value [1] was 9855 CELLS/uL. The “ABSOLUTE MONOCYTE” value [1] was 58 CELLS/uL, the “ABSOLUTE SEGMENTED NEUTROPHIL” value [1] was 1187 CELLS/uL and the BASOPHIL [1] was 0%. For the same compound, the EOSINOPHIL [1] was 0%, the “ERYTHROCYTE COUNT” value [1] was 5.44 x10E6/uL and the HEMATOCRIT [1] was 34.1%. For the same compound, the HEMOGLOBIN [1] was 13.23 G/DL, the “LEUKOCYTE COUNT” value [1] was 11.1 x10E3/uL and the LYMPHOCYTE [1] was 89%. For the same compound, the “MEAN CORPUSCULAR HEMOGLOBIN” value [1] was 24.33 pg, the “MEAN CORPUSCULAR HEMOGLOBIN CONCENTRATION” value [1] was 38.83 G/DL and the “MEAN CORPUSCULAR VOLUME” value [1] was 62.67 fL. The MONOCYTE [1] was 0.67%, the NEUTROPHIL [1] was 10.33% and the “NUCLEATED RED BLOOD CELLS” value [1] was 0 /100WBC. The “PLATELET COUNT” value [1] was 1231.67 x10E3/uL, the “ALANINE AMINOTRANSFERASE” value [1] was 60.33 u/L and the ALBUMIN [1] was 3.8 G/DL. The “ALKALINE PHOSPHATASE” value [1] was 346 u/L, the “ASPARTATE AMINOTRANSFERASE” value [1] was 88.33 u/L and the “BLOOD UREA NITROGEN” value [1] was 17 mg/dL. The “CARBON DIOXIDE” value [1] was 32.67 mmol/L, the CHLORIDE [1] was 99.33 MEQ/L and the CHOLESTEROL [1] was 71.67 mg/dL. The “CREATINE PHOSPHOKINASE” value [1] was 344.67 u/L, the CREATININE [1] was 0.19 mg/dL and the GLUCOSE [1] was 155 mg/dL. The “LACTATE DEHYDROGENASE” value [1] was 163 u/L, the LIPASE [1] was 8.67 u/L and the PHOSPHORUS [1] was 11.17 mg/dL. The POTASSIUM [1] was 5.63 MEQ/L, the SODIUM [1] was 145.17 MEQ/L and the “TOTAL BILIRUBIN” value [1] was 0.17 mg/dL. For the same compound, the “TOTAL PROTEIN” value [1] was 5.63 G/DL, the “URIC ACID” value [1] was 0.67 mg/dL and the “ABSOLUTE BASOPHIL” value [2] was 0 CELLS/uL. For the same compound, the “ABSOLUTE EOSINOPHIL” value [2] was 29 CELLS/uL, the “ABSOLUTE LYMPHOCYTE” value [2] was 9707 CELLS/uL and the “ABSOLUTE MONOCYTE” value [2] was 106.67 CELLS/uL. The “ABSOLUTE SEGMENTED NEUTROPHIL” value [2] was 824 CELLS/uL, the BASOPHIL [2] was 0% and the EOSINOPHIL [2] was 0.33%. The “ERYTHROCYTE COUNT” value [2] was 5.46 x10E6/uL, the HEMATOCRIT [2] was 34.73% and the HEMOGLOBIN [2] was 13.4 G/DL. For the same compound, the “LEUKOCYTE COUNT” value [2] was 10.67 x10E3/uL, the LYMPHOCYTE [2] was 91% and the “MEAN CORPUSCULAR HEMOGLOBIN” value [2] was 24.57 pg. For the same compound, the “MEAN CORPUSCULAR HEMOGLOBIN CONCENTRATION” value [2] was 38.63 G/DL, the “MEAN CORPUSCULAR VOLUME” value [2] was 63.53 fL and the MONOCYTE [2] was 1%. The NEUTROPHIL [2] was 7.67%, the “NUCLEATED RED BLOOD CELLS” value [2] was 0 /100WBC and the “PLATELET COUNT” value [2] was 792 x10E3/uL. For the same compound, the “ALANINE AMINOTRANSFERASE” value [2] was 58 u/L, the ALBUMIN [2] was 4.2 G/DL and the “ALKALINE PHOSPHATASE” value [2] was 300.33 u/L. The “ASPARTATE AMINOTRANSFERASE” value [2] was 75.67 u/L, the “BLOOD UREA NITROGEN” value [2] was 13 mg/dL and the “CARBON DIOXIDE” value [2] was 34.67 mmol/L. The CHLORIDE [2] was 101.33 MEQ/L, the CHOLESTEROL [2] was 81.33 mg/dL and the “CREATINE PHOSPHOKINASE” value [2] was 230 u/L. For the same compound, the CREATININE [2] was 0.16 mg/dL, the GLUCOSE [2] was 139 mg/dL and the “LACTATE DEHYDROGENASE” value [2] was 113.33 u/L. For the same compound, the LIPASE [2] was 9 u/L, the PHOSPHORUS [2] was 11.77 mg/dL and the POTASSIUM [2] was 6.23 MEQ/L. The SODIUM [2] was 146.57 MEQ/L, the “TOTAL BILIRUBIN” value [2] was 0.2 mg/dL and the “TOTAL PROTEIN” value [2] was 6.17 G/DL. For the same compound, the “URIC ACID” value [2] was 0.73 mg/dL, the “ABSOLUTE BASOPHIL” value [3] was 0 CELLS/uL and the “ABSOLUTE EOSINOPHIL” value [3] was 23.33 CELLS/uL. For the same compound, the “ABSOLUTE LYMPHOCYTE” value [3] was 7811.33 CELLS/uL, the “ABSOLUTE MONOCYTE” value [3] was 0 CELLS/uL and the “ABSOLUTE SEGMENTED NEUTROPHIL” value [3] was 598.67 CELLS/uL. For the same compound, the BASOPHIL [3] was 0%, the EOSINOPHIL [3] was 0.33% and the “ERYTHROCYTE COUNT” value [3] was 5.7 x10E6/uL. The HEMATOCRIT [3] was 36%, the HEMOGLOBIN [3] was 13.73 G/DL and the “LEUKOCYTE COUNT” value [3] was 8.43 x10E3/uL. The LYMPHOCYTE [3] was 92.33%, the “MEAN CORPUSCULAR HEMOGLOBIN” value [3] was 24.1 pg and the “MEAN CORPUSCULAR HEMOGLOBIN CONCENTRATION” value [3] was 38.17 G/DL. The “MEAN CORPUSCULAR VOLUME” value [3] was 63.17 fL, the MONOCYTE [3] was 0% and the NEUTROPHIL [3] was 7.33%. The “NUCLEATED RED BLOOD CELLS” value [3] was 0 /100WBC, the “PLATELET COUNT” value [3] was 1184.67 x10E3/uL and the “ALANINE AMINOTRANSFERASE” value [3] was 60 u/L. For the same compound, the ALBUMIN [3] was 4.2 G/DL, the “ALKALINE PHOSPHATASE” value [3] was 346 u/L and the “ASPARTATE AMINOTRANSFERASE” value [3] was 81 u/L. For the same compound, the “BLOOD UREA NITROGEN” value [3] was 14 mg/dL, the “CARBON DIOXIDE” value [3] was 33 mmol/L and the CHLORIDE [3] was 99 MEQ/L. For the same compound, the CHOLESTEROL [3] was 74.33 mg/dL, the “CREATINE PHOSPHOKINASE” value [3] was 461.33 u/L and the CREATININE [3] was 0.13 mg/dL. The GLUCOSE [3] was 131.67 mg/dL, the “LACTATE DEHYDROGENASE” value [3] was 142.67 u/L and the LIPASE [3] was 11.67 u/L. It also gave a PHOSPHORUS [3] of 10.57 mg/dL, a POTASSIUM [3] of 5.73 MEQ/L and an SODIUM [3] of 145.3 MEQ/L. The “TOTAL BILIRUBIN” value [3] was 0.2 mg/dL, the “TOTAL PROTEIN” value [3] was 6.17 G/DL and the “URIC ACID” value [3] was 0.53 mg/dL.
